Patent publication US20070014736A1, “Methods of delivering corticotroph-derived glycoprotein hormone” (priority 2005, published 2007)

What was measured:
obese male ob/ob mice = experiment: Chronic 28-day treatment of ob/ob mice; assay type: in vivo
Description: Summary: CGH was administered daily for 28 days to obese male ob/ob mice. Mice were also treated with vehicle saline and thyroxine. Data was obtained for food intake, blood glucose, serum insulin, serum lipids, and serum thyroid hormone levels. At sacrifice, animals were examined for changes in liver pathology, and gross histology. […] Evaluation of liver histology sections was performed to examine the effect of CGH-mediated lipolysis on liver steatosis.
11-week old male ob/ob mice were individually caged and given a standard lab chow (4% fat) with free access to food and water. Animals were assigned to a treatment group (n=7−8, average weight 54.3±0.3 g/group), kept on a 12 hour dark cycle (6 PM to 6 AM), and injected each day between 7 and 9 AM. Chow consumed by each animal was weighed twice weekly. All animals received treatments IP in an injection volume of 0.1 ml. CGH was administered at 250 μg/kg, dissolved in sterile saline. Thyroxine (T4) was administered at 1.5 μg/mouse for 4 days, reduced to 1 μg/mouse for 10 days, and returned to 1.5 μg/mouse for the next 14 days. The vehicle controls received sterile saline. TSH was obtained from Genzyme Pharmaceuticals (Thyrogen®, Catalog number 36778; Genzyme Corporation, Cambridge, Mass.), and T4 obtained from Calbiochem, Inc. (EMD Biosciences, catalog number 61205, San Diego, Calif.) All blood draws were performed by retro-orbital puncture under isoflurane anesthesia.
After 25 days of treatment as described above, blood was sampled from all treated animals, serum separated, and analyzed for total T4 by a commercially available kit (Biocheck, Burlingame, Calif.). After 25 days of treatment, the vehicle T4 levels were 5.14±0.08 μg/dl. The CGH-treated group had T4 levels of 7.25±1.2 μg/dl, and the thyroxine-treated group had T4 levels of 9.04±0.47 μg/dl.
Subject animals were fasted for 4 hours at the beginning of the light cycle, and serum was obtained at treatment day 25 under isoflurane anesthesia. Serum Glucose levels were determined with the Cholestech LDX blood analyzer (Cholestech Corporation, Hayward Calif.), and serum insulin levels by ELISA. Serum glucose levels for vehicle and thyroxine treated groups were 306±22 and 295±23 mg/dl, respectively. […] Serum insulin levels for the vehicle and thyroxine treated groups were 33.5±1.8 and 25.9±1.7 ng/ml, respectively.
Subject animals were fasted for 4 hours at the beginning of the light cycle, and serum was obtained at treatment day 25 under isoflurane anesthesia. Triglyceride and total cholesterol levels were determined with the Cholestech LDX blood analyzer. Serum triglyceride levels for the vehicle controls were 143.7±23 mg/dl. […] Total cholesterol levels in the vehicle-treated and thyroxine-treated groups were 198±13 and 194±15 mg/dl, respectively.
Liver sections were dissected from all treatment groups described above and mounted in paraffin following fixation with NBS-formalin. Sections were mounted and stained with hematotoxylin and eosin (H&E) for visualization of hepatic structural changes. The extent of liver steatosis was evaluated on a four-point scale, from 0 to 3, with zero displaying no signs of liver steatosis, and a […], represented pronounced macrovesicular and microvesicular steatosis. […] Average scores given to the groups were vehicle (4), thyroxine (3), and CGH (1.5). […] The CGH treated sections appear to have regained hallmarks of normal hepatocyte architecture in only 28 days of treatment, with areas containing hepatocytes without lipid-laden inclusions in the cytoplasm of the cell.

lipolysis in mice = experiment: Stimulation of lipolysis in vivo, serum glycerol and FFA; settings: fasted mice, IP; CGH 300 μg/kg, CL 1 mg/kg
Description: CGH, the β3-adrenoreceptor agonist CL 316,243 (CL), and saline vehicle were examined for stimulation of lipolysis in mice following an overnight fast. […] Lipolysis was assessed as the percent change in serum glycerol or FFA over the 2 hour period. The serum glycerol and FFA for the vehicle groups decreased by 7%±9% and 24%±15%, respectively. The serum glycerol for the CGH group increased by 57%±20%; p=0.0254, and the FFA levels increased 25%±5%; p=0.0188.
C57 BL/6 male mice, age 19 weeks, were grouped to normalize weight (n=4 for each treatment; average group weight=37.8 g±0.4 g). Mice were housed individually for 18 hours prior to treatment, at which time food was withdrawn, with free access to water given. At approximately 8 a.m., the subjects were anesthetized with halothane and blood samples taken by retro-orbital eye bleed. The blood was allowed to clot, and the serum was separated by centrifugation and frozen for later analysis. Test substances were administered by IP injection in a volume of 0.1 ml, and the animals replaced in their cages for 2 hours with free access to water. At 2 hours, the mice were sacrificed and blood drawn by cardiac puncture.
For measuring free fatty acids in serum, the method previously described for measuring free fatty acids in conditioned media was followed, with the following modifications. Wako reagents A and B were reconstituted to 2× the recommended concentration. 75 μl of Wako reagent A were added to 5 μl of oleic acid standard plus 5 μl of water. 75 μl of Wako reagent A were added to 5 μl of serum plus 5 μl of methanol (to mirror the oleic acid standard conditions). The 96-well plates were incubated at 37° C. for 10 minutes. 150 μl of Wako reagent B were added to each well. The 96-well plates were incubated at 37° C. for 10 minutes. The 96-well plates were allowed to sit at room temperature for 5 minutes. The 96-well plates were centrifuged in a Beckman Coulter Allegra 6R centrifuge at 3250×g for 5 minutes to remove air bubbles. The absorbance at 530 nm was measured on the Wallac Victor2 Multilabel counter.
For measuring glycerol in serum, the method previously described for measuring glycerol in conditioned media was followed, with the modifications described below.
Sigma reagent A was reconstituted to 0.5× the recommended concentration. 200 μl of Sigma reagent A were added to 10 μl of glycerol standard. 200 μl of Sigma reagent A were added to 5 μl of serum plus 5 μI of water. The 96-well plates were incubated for 15 minutes at room temperature. The 96-well plates were centrifuged in a Beckman Coulter Allegra 6R centrifuge at 3250×g for 5 minutes to remove air bubbles. The absorbance at 530 nm was measured on the Wallac Victor2 Multilabel counter.

[1] = system: LPS-induced mild endotoxemia mouse model; experiment: LPS-induced mild endotoxemia mouse model, serum cytokines; assay type: in vivo, mice; settings: 2 mg/kg monomer, data not shown
Description: An in vivo experiment was designed to examine the effect of CGH in a mouse model of LPS-induced mild endotoxemia. This model mimics acute endotoxemia/sepsis by challenging mice with a low, non-lethal dose of bacterial endotoxin (lipopolysaccharide, LPS). Serum is collected at various timepoints (1-8 hours) after intraperitoneal LPS injection and analyzed for altered expression of a wide variety of pro- and anti-inflammatory cytokines and acute phase proteins that mediate the inflammatory response. The model provides a means to assess the potential anti-inflammatory effects of therapeutic candidates during a robust inflammatory response. To initially assess the model, we measured proinflammatory cytokines in a pilot experiment to collect reference data for the model.
C57B1/6 mice (Charles River Laboratories; 5 mice/group) were treated i.p. with PBS, 0.2 mg/kg CGH in PBS, or 2 mg/kg CGH in PBS 1 hour prior to LPS challenge. The mice were then challenged with 25 ug of LPS i.p. and bled at 1 hour and 4 hours after LPS injection. Serum was analyzed for TNF[…] (1 hour) and IL-6 (4 hours) levels by ELISA.
To determine if CGH would potentiate the effect of a sub-maximal dose of glucocorticoid, groups of 10 C57B1/6 mice each were treated i.p. with PBS, 0.15 or 1.5 mg/kg Dex, 2 mg/kg CGH, or a combination of CGH and low or high doses of Dex, 1 hour prior to injection of 25 ug LPS i.p. As shown in TABLE 3 (Expt #2), either 2 mg/kg CGH or 1.5 mg/kg Dex treatment alone (1 hour prior to LPS) caused a significant drop in serum TNFα levels at 1 hour, as observed in previous experiments. The effects of CGH administered in conjunction with Dex on inhibition of TNFα production were greater than either dose of Dex alone.

TSHR = experiment: Binding of 125I-CGH and 125I-TSH to BHK cells expressing the TSHR; design: species or system murine or human; settings: increasing amounts of unlabeled protein
Description: BHK cells expressing murine or human TSHRs were cultured in Dulbecco's Modified Eagle's Medium [DMEM (high glucose)] containing 5% fetal bovine serum, 1% Glutamax, 1% sodium pyruvate, 250 nM methotrexate, and Geneticin ( 1/100). […] Plates of cells were placed on ice and washed twice with 1.0-2.0 ml of ice-cold PBS. […] Specific binding was determined in the presence (nonspecific binding) and absence (total binding) of unlabeled rhCGH (25.0 μg/ml) or TSH (10 μg/ml). Binding reactions were terminated by removing the binding medium and the cell monolayers were washed three times with 1.0-2.0 ml of ice-cold PBS containing 1.0 mg/ml BSA and twice with 1.0-2.0 ml of ice cold albumin-free PBS. Cells were solubilized in 1.0 ml of 1.0N NaOH for 10 min at room temperature and cell-associated radioactivity was determined in a gamma counter. The measured radioactivity was normalized to cell number that was determined on plates of cells cultured in parallel. Binding data were analyzed by non-linear regression using Prizm 3.0 (GraphPad Software, San Diego, Calif.).

## N[C@@H](Cc1cc(I)c(Oc2cc(I)c(O)c(I)c2)c(I)c1)C(=O)O [thyroxine, reference compound]
Obese male ob/ob mice; H&E liver sections, 28 days, n=4
  liver steatosis average score: 3
Obese male ob/ob mice; after 25 days of treatment
  serum total T4 levels: 9.04 ± 0.47 µg/dL
Obese male ob/ob mice; day 25, fasted 4 hours
  Serum glucose levels: 295 ± 23 mg/dL
  Serum insulin levels: 25.9 ± 1.7 ng/mL
  Serum triglyceride levels: 198 ± 43 mg/dL
  Total cholesterol levels: 194 ± 15 mg/dL
Obese male ob/ob mice; ob/ob mice, CGH 250 μg/kg IP daily, T4 1-1.5 μg/mouse
  Food intake: 6.1±0.17 grams/day of chow

## C[C@H](Cc1ccc2c(c1)OC(C(=O)[O-])(C(=O)[O-])O2)NC[C@H](O)c1cccc(Cl)c1.[Na+].[Na+] [CL, CL 316,243, reference compound]
Lipolysis in mice
  percent change (increase) in serum FFA over 2 hours: 82%±16%
  percent change (increase) in serum glycerol over 2 hours: 168%±23%

B1: zsig51: alpha subunit of CGH, glycoprotein hormone alpha2, previously called Zsig51 (protein)
chain: QEAVIPGCHLHPFNVTVRSDRQGTCQGSHVAQACVGHCESSAFPSRYSVLVASGYRHNITSVSQCCTISGLKKVKVQLQCVGSRREELEIFTARACQCDMCRLSRY
[1]
  effect on serum TNFα or IL-6 levels: neither of these monomers had any effect
TSHR
  reduction of the amount of 125I-CGH bound by unlabeled competitor: neither unlabeled rhTSH (FIG. 1C) nor unlabeled rhGPHA2 nor rhGPHB5 (data not shown) reduced the amount of ^125I-CGH bound

B2: zlut1: beta subunit of CGH, glycoprotein hormone beta 5, previously called Zlut1 (protein)
chain: ASSGNLRTFVGCAVREFTFLAKKPGCRGLRITTDACWGRCETWEKPILEPPYIEAHHRVCTYNETKQVTVKLPNCAPGVDPFYTYPVAIRCDCGACSTATTECETI
[1]
  effect on serum TNFα or IL-6 levels: neither of these monomers had any effect
TSHR
  reduction of the amount of 125I-CGH bound by unlabeled competitor: neither unlabeled rhTSH (FIG. 1C) nor unlabeled rhGPHA2 nor rhGPHB5 (data not shown) reduced the amount of ^125I-CGH bound
